# According to patent publication US11634458B2, “Peptides and compositions for use in cosmetics and medicine” (LIPOTRUE, S.L., priority 2018, dated 2023):
# Entries after “also recorded” stand apart in the source; their conditions may differ.
# What was measured:
# [1] = system: LAN cells; assay: Measurement of acetylcholine release in differentiated LAN cells stimulated with 50 mM KCl; assay type: cell-based; details: 1 hour treatment, 0.001, 0.005 and 0.01 mg/mL (Ac-SEQ ID NO: 8-NH2: 0.005 and 0.05 mg/mL)
# Procedure: Said peptides were tested for their ability to modulate acetylcholine release in vitro. To that end, LAN cells were seeded on 48-well culture plates and allowed to reach the appropriate confluence under controlled conditions (37° C., 5% CO2) before inducing differentiation by replacing the culture media with Neurobasal® A media, supplemented with N-2 Supplement, GlutaMAX™, choline chloride and Leukemia Inhibition factor (GIBCO, Life technologies, MA, USA). Once the cells acquired its differentiated morphology, they were treated with the peptides mentioned above at the following concentrations for 1 hour: all peptides, except Ac-SEQ ID NO: 8-NH2, at 0.001 mg/mL, 0.005 mg/mL and 0.01 mg/mL; and peptide Ac-SEQ ID NO: 8-NH2 at 0.005 mg/mL and 0.05 mg/mL. Cells were then washed with HEPES, before stimulation of acetylcholine release by depolarization with external 50 mM KCl solution. Non-stimulated cells were incubated with non-depolarizing 4 mM KCl solution. After 30 minutes of incubation with the corresponding depolarizing or non-depolarizing KCl solution, cell supernatants were collected and used to measure acetylcholine levels with Amplex Red Acetylcholine Assay Kit (ThermoFisher Scientific, MA, USA). Cell pellets were used to determine protein content by BCA Protein Test Assay (Pierce BCA Protein Assay kit, ThermoFisher Scientific, MA, USA) (for data normalization purposes).
# Percentage of acetylcholine release inhibition was calculated considering 100% release for the positive control (non-treated stimulated with KCl cells).
# [2] = system: human skeletal muscle myocytes; assay: Gene expression modulation in skeletal muscle human myocytes (RTqPCR contractility gene panel); assay type: cell-based; details: 24 hours, vs basal control
# Procedure: Said peptides were tested to evaluate their capacity to modulate the expression of several genes related with muscle contraction and relaxation in human skeletal muscle myocytes (Lodish H, Berk A, Zipursky S L, et al. (2000), Molecular Cell Biology, 4th edition; Section 18.3 Myosin: The Actin Motor Protein, Nueva York, W. H. Freeman; Kuo, I Y, & Ehrlich, B E (2015), Signaling in Muscle Contraction, Cold Spring Harbor Perspectives in Biology, 7(2); RAPSN receptor associated protein of the synapse [Homo sapiens (human)], Gene ID in NCBI 5913; Blake D J, Tinsley J M, Davies K E (1996), Utrophin: a structural and functional comparison to dystrophin, Brain Pathol., 6(1):37-47; Barik A, Lu Y, Sathyamurthy A, et.al. (2014), LRP4Is Critical for Neuromuscular Junction Maintenance, The Journal of Neuroscience, 34(42), 13892-13905; Kim N, Stiegler A L, Cameron T O, Hallock P T, et.al. (2008), Lrp4 is a Receptor for Agrin and Forms a Complex with MuSK, Cell, 135(2), 334-342; Mahavadi S, Nalli A, Kumar D, et.al. (2014), Increased expression of caveolin-1 is associated with upregulation of the RhoA/Rho kinase pathway and smooth muscle contraction in diabetes (1110.11), The FASEB Journal, 28:1_supplement)). To that end, a contractility smart data gene panel was designed. Said contractility smart data gene panel analyses the expression of the genes related with muscular contraction and relaxation included in table 5.
# Briefly, human skeletal muscle myoblasts were seeded in duplicate in 12-well culture plates at a density of 1×10^5 cells/well and maintained at standard culture conditions (37° C., 95% humidity, 5% CO2) for 48-72h. Myoblast differentiation to myocyte was then induced with specific differentiation media (SKM-D medium+1% Antibiotic-Antimycotic) and monitored for 7 more days. Differentiated cells were treated with 0.05 mg/mL of peptide Ac-SEQ ID NO: 5-NH2; or with 0.1 mg/mL of peptide Ac-SEQ ID NO: 10-NH2 for 24 hours; or with 0.05 and 0.5 mg/mL of peptide Ac-SEQ ID NO: 8-NH2 for 6h; or with 0.5 mg/mL of peptide Ac-SEQ ID NO: 8-NH2 for 24 h. Untreated cells were used as basal control. Cells were then lysed for RNA extraction with a RNA purification commercial kit following manufacturer instructions (RNeasy mini kit, Qiagen, Netherlands). RNA was then quantified by nanodrop, adjusted in concentration and processed for retrotranscription to cDNA using a commercially available kit (High-Capacity cDNA Reverse Transcription kit, Thermofisher Scientific, USA). Resulting cDNA was used to perform a RTqPCR (Real Time Quantitative Polymerase Chain Reaction) using taqman technology and a panel of probes designed to target the specific genes related to muscle contractility mentioned in table 4.
# [3] = biological target: Munc18/Syntaxin-1 (Homo sapiens, UniProt Q16623); assay: ELISA-based in vitro Munc18/Syntaxin-1 binding assay; details: peptide 0.1, 0.5 and 1 mM; Munc18 100 nM, Syntaxin-1 10 and 5 nM; control = 100% binding
# Procedure: The capacity of the peptides to inhibit Munc18 protein-protein interaction with Syntaxin-1, a SNARE complex protein, was functionally evaluated by means of an ELISA-based in vitro Munc18/Syntaxin-1 binding assay. Briefly, the above-mentioned peptides at 0.1, 0.5 and 1 mM were preincubated with their target protein Syntaxin-1 (GST-tagged) at 10 and 5 nM in buffer (20 mM Hepes, 150 mM NaCl, 2 mM MgC2, 2 mM DTT, 0.5% Triton-X100 and 0.5% non-fat milk) for 3 hours at RT. Meanwhile, His-tagged Munc18 was bound to a Nickel-coated 96-well plate at 100 nM and incubated at RT for 1.5 hours. Non-bound protein was subsequently washed away before blocking wells with non-fat milk in wash buffer (PBS+0.02% Triton-X100) for additional 30 minutes. GST-tagged Syntaxin-1 preincubated with the peptides was then added at 10 and 5 nM to the plate and incubated for 2 h at RT. Wells were washed three times with wash buffer before incubation with the primary antibody (GST tag polyclonal antibody—Thermofisher Scientific, Massachusetts, USA) for 45 minutes. Finally, after washing again, HRP-conjugated secondary antibody (Anti-Rabbit-IgG-HRP—Sigma, Missouri, USA) was added and incubated at RT. TMB substrate (3,3′,5,5′-Tetramethylbenzidine) was used to develop signal. […] Amount of binding of Syntaxin-1 protein to Munc18 protein was analysed by measuring absorbance at 450 nm.
# [4] = system: human muscle cells and motor neurons derived from hiPSC co-cultures; assay: Contraction frequency in human muscle cell / hiPSC motor neuron co-cultures; assay type: cell-based; details: 0.5 mg/mL
# Procedure: The potential of said peptide Ac-SEQ ID NO: 8-NH2 to modulate the contraction frequency was evaluated in vitro using human muscle cells and motor neurons derived from hiPSC co-cultures, by means of live-imaging video of localized contractile muscle fibers recorded with an InCell 2200 automated microscope during 60 seconds, before and after treatment (after treatment, at each of the established timepoints).
# Human muscle cells were cultivated at a density of 1×10^6 cells in T75 cm^2 flasks and then transferred to 96 well plates for differentiation. Motor neurons derived from hiPSC were transferred onto the 96 well plates containing the muscle cells in a differentiation medium. Co-cultures were maintained for 10 days in order to generate neurons junctions with muscle fibers. Spontaneous contractions were observed within 5 days.
# Co-cultures were then treated with control medium (basal), 1 μM α-bungarotoxin, 0.5 mg/mL of acetyl hexapeptide-8 as a benchmark reference and 0.05 or 0.1 mg/mL of peptide Ac-SEQ ID NO: 8-NH2. Movies of co-cultures were recorded during 60 seconds before treatment and, after 30 minutes of incubation, movies were recorded again during 60 seconds. The culture plate was incubated again for 1 h 30 min with compounds (2 h of total incubation), and movies of co-cultures were recorded again during 60 seconds. The culture plate was incubated again for a total of 24 h with compounds and at the end of the incubation movies were recorded again during 60 seconds. Finally, compounds were washed out and a last recording after 24 h from said washed out of the compounds was done to assess an eventual recovery of muscle contractions (recovery).
# Frequencies of contraction were calculated before and after each incubation. For each culture condition, 6 wells were analyzed.
# [5] = system: SH-SY5Y cells; assay: Exocytosis levels and delay (fluorescent exocytosis reporter); assay type: cell-based, human; details: 1 mg/mL, 1 hour, PMA + ionomycin, vs non-treated cells
# Procedure: The potential of said peptide Ac-SEQ ID NO: 8-NH2 to modulate the exocytosis of vesicles containing neurotransmitters from a neuroblastoma cell line was evaluated in vitro using SH-SY5Y cells, by fluorescence imaging using a Zeiss axiovert 200 inverted epifluorescence microscope with a 20× objective and a Xenon lamp.
# SH-SY5Y cells (Sigma, USA) were cultured in T25 flasks in supplemented medium (DMEM/F12, Gibco, USA). Above 90% confluence, cells were trypsinized with 1 ml of 0.5% (v/v) Trypsin-EDTA. Next, 5 mL of said supplemented medium was added and cell concentration determined. Cells were seeded onto polyLysine-coated 12 mm-treated coverslips in 24 well-plates at 15×10^4 cells/well in supplemented medium (Gibco, USA) and incubated at regular conditions (37° C., 5% CO2). After 24 h cell seeding, cells were transfected with exocytosis reporter using Lipofectamine™ 3000 (Invitrogen, USA) following manufacturer's instructions. Reporter construct contained fusion protein made up of intraluminal-specific proteins and a pH-sensitive fluorescent protein.
# For exocytosis monitorization, after 48 h of protein expression, cells were incubated with 0.01 mg/mL of Ac-SEQ ID NO: 8-NH2 peptide or 1 mg/mL of the benchmark acetyl hexapeptide-8 for 1 h at 37° C. and 5% CO2. Non-treated cells were used as basal control. […] Fluorescence imaging was done for the last 10 min of the stimulation protocol. Fluorescence signal of exocytosis reporter was monitored employing 483-512 nm excitation-filter and 525-530 nm emission-filter. […]
# Non-treated cells were assayed in N=4 independent experiments with n=16 coverslips (483 cells measured), acetyl hexapeptide-8-treated cells in N=3 independent experiments with n=10 coverslips (328 cells measured) and Ac-SEQ ID NO: 8-NH2-treated cells in N=3 independent experiments with n=8 coverslips (240 cells measured). Cells were selected to individually monitor fluorescence intensity and time-course. Fluorescence peak evoked by ionomycin addition was used to quantify exocytosis by calculating the Area under the curve (AUC) using GraphPad software. Two parameters were defined and analyzed: • Exocytosis levels: For individual cells, total peak area was obtained from AUC analysis and was normalized by the baseline that was defined as fluorescence intensity 3-cycles before lonomycin injection. • Exocytosis delay: For individual cells, response time (min) was obtained from AUC analysis as time frame between lonomycin injection (Y) and initiation of peak (firstX).
# Fluorescence values were further normalized as percentage change to non-treated cells on each experiment as: (exocytosis level of treated cells/exocytosis levels non-treated cells)×100 and (response time of treated cells/response time of non-treated cells)×100. […]
# [6] = system: permeabilized chromaffin cells; details: Blanes-Mira et al. 2002; cited from earlier work
# Chain of Munc18/Syntaxin-1 (Q16623 whole entry): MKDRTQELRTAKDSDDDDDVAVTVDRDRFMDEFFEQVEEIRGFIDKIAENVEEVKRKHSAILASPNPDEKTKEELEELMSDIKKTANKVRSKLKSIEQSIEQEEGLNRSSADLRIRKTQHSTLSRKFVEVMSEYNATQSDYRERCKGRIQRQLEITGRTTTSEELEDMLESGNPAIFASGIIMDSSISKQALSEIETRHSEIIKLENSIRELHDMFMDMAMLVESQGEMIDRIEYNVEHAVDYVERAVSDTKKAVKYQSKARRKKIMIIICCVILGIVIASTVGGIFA
substance,measurement,setting,value
Ac-Arg-Arg-Arg-Phe-NH2 (Ac-RRRF-NH2) [Ac-SEQ ID NO: 10-NH2],Result: modulation of acetylcholine release,[1],Active in the modulation of
same,CACNB1 gene expression,[2]; 0.1 mg/mL,downregulation
same,CHRNA1 gene expression,[2]; 0.1 mg/mL,downregulation
same,SCN3A gene expression,[2]; 0.1 mg/mL,downregulation
same,TNNC1 gene expression,[2]; 0.1 mg/mL,downregulation
same,UTRN gene expression,[2]; 0.1 mg/mL,downregulation
Ac-Arg-Met-Arg-Phe-NH2 (Ac-RMRF-NH2) [Ac-SEQ ID NO: 11-NH2],Result: modulation of acetylcholine release,[1],Active in the modulation of
Ac-Glu-Arg-Ile-Asn-Lys-Arg-Arg-Trp-NH2 (Ac-ERINKRRW-NH2) [Ac-SEQ ID NO: 13-NH2],Result: modulation of acetylcholine release,[1],not able to inhibit the release of acetylcholine; also recorded: Non-active in the modulation
Ac-Glu-Arg-Ile-Asn-Lys-Met-Arg-Tyr-NH2 (Ac-ERINKMRY-NH2) [Ac-SEQ ID NO: 14-NH2],Result: modulation of acetylcholine release,[1],not able to inhibit the release of acetylcholine; also recorded: Non-active in the modulation
Ac-His-Ile-Leu-Asp-Met-Trp-NH2 (Ac-HILDMW-NH2) [Ac-SEQ ID NO: 5-NH2],Result: modulation of acetylcholine release,[1],Active in the modulation of
same,Maximum inhibition of Munc18-Syntaxin-1 binding,[3],67%
same,ACTA1 gene expression,[2]; 0.05 mg/mL,downregulation
same,MYH1 gene expression,[2]; 0.05 mg/mL,downregulation
same,RAPSN gene expression,[2]; 0.05 mg/mL,downregulation
same,SCN3A gene expression,[2]; 0.05 mg/mL,downregulation
same,TNNC1 gene expression,[2]; 0.05 mg/mL,downregulation
same,UTRN gene expression,[2]; 0.05 mg/mL,downregulation
Ac-His-Ile-Leu-Asp-Trp-Trp-NH2 (Ac-HILDWW-NH2) [Ac-SEQ ID NO: 7-NH2],Result: modulation of acetylcholine release,[1],Active in the modulation of
Ac-His-Ile-Met-Asp-Phe-Trp-NH2 (Ac-HIMDFW-NH2) [Ac-SEQ ID NO: 6-NH2],Result: modulation of acetylcholine release,[1],Active in the modulation of
Ac-His-Ile-Met-Asp-Trp-Trp-NH2 (Ac-HIMDWW-NH2) [Ac-SEQ ID NO: 9-NH2],Result: modulation of acetylcholine release,[1],Active in the modulation of
acetyl hexapeptide-8 [reference compound],muscle contraction frequency with regard to the basal non-treated cells,[4]; after 30 min,18%
same,muscle contraction frequency with regard to the basal non-treated cells,[4]; after 24 h,45%
same,muscle contraction frequency with regard to the basal non-treated cells,[4]; after washout,100%
same,change of exocytosis level,[5],7%
same,exocytosis response time delay,[5],67%
same,"inhibition of exocytosis, maximum values",[6],40%
